From publication PMC11117716 (Biomolecules, 2024)

What was measured:
[1] = Plasma pharmacokinetics after oral Posiphen in Beagle dogs (LC-MS/MS); set-up: species or system dog; details: dog plasma
Method: In rats and dogs, blood samples were centrifuged, and the resultant plasma was separated, and 200 µL (rat) or 400 µL (dog) of plasma was transferred to uniquely labeled pre-chilled polypropylene tubes containing 5 µL (rat) or 10 µL (dog) Dichlorvos spiking solution (nominal concentration of 0.82 mg/mL in MeOH/Water, 20/80, v/v).
(§1) The detection limit was 0.025 ng/mL.

[2] = test system: neurotoxic aggregating proteins; details: cited from earlier work
[3] = in vivo
Method: (§2) The animal PKs were taken from multiple GLP toxicology studies, biomarker studies, and efficacy studies. […] Sample size (n) represents the number of animals at each time point of sample collection. […] The dose volume was determined according to animals’ weight collected on the dosing day.
(§3) In mice, blood samples were collected via the saphenous vein or other suitable blood collection site into a microcentrifuge tube containing the anti-coagulant K2-EDTA on wet ice and processed for plasma. For samples collected within the first hour of dosing, ±1 min is acceptable, while for all other timepoints, samples were taken within 5% of the scheduled time and are not considered as protocol deviations. Plasma samples were centrifuged (3200× g for 10 min at 4 °C) within an hour of collection. CSF samples were collected with 3 μL volume per time point, frozen on dry ice, and stored at −60 °C for further analysis. For brain collection in mice, animals were euthanized using CO2 inhalation. Whole brain was collected, washed in cold saline, dried, and homogenized immediately […]. Homogenizing buffer MeOH/15 mM PBS (1:2, v:v) was used at a ratio of 1:9 (1 g of tissue with 9 mL of buffer; the dilution ratio is 10).
(§4) In humans, the bioanalytical method was performed in accordance with current FDA, Industry Guidelines, and OECD Principles. […] The sample analysis was conducted in accordance with current GCP and GLP principles, and the results were presented for pharmacokinetic profiling (Absorption Systems, Exton, PA, USA). Calibration ranges for each analyte ranged from 1000 ng/mL to 1 ng/mL (or ng/g for brain) in plasma, brain, and CSF matrices. The detection limit was 0.025 ng/mL. The following PK parameters were collected for the purpose of this manuscript: maximum concentration (Cmax), time to maximum drug concentration (Tmax), half-life (T1/2), and the Area Under the Curve (AUC).

[4] = Plasma pharmacokinetics after oral Posiphen in CD-1 mice (LC-MS/MS); details: for AUC(0-t) / Cmax / Tmax: po
Method: as §2, §3, §4
Blood plasma samples were collected at various time points within the initial 8 h following administration (6 h for humans). Plasma concentrations (ng/mL) were measured over the 8 h observation window to characterize the maximum concentration (Cmax), the time to peak drug concentration (Tmax), the half-life (T1/2), and the Area Under the Curve (AUC).

[5] = Plasma pharmacokinetics after oral Posiphen in humans (LC-MS/MS); assay type: in vivo, human; details: human, in vivo, po; for AUC(0-t): read-out: AUC (0-t)
Method: This paper describes data from multiple studies.
Samples were frozen and then stored at −80 °C.
as §1

[6] = test system: acetylcholinesterase; details: cited from earlier work
[7] = clinical; details: human, in vivo; for Kp: 80 mg/day; for AUC(0-t) / Cmax: po
Method: This paper describes data from multiple studies. The healthy volunteers’ data come from the single ascending and multiple ascending dose study, whereas Alzheimer’s and Parkinson’s patients are represented by the MCI NCT01072812 study, ADCS NCT02925650 study, and AD/PD NCT04524351 study. The evaluations are based on a sample size of n = 4 for each time point.
In humans, plasma and lumbar CSF samples were collected via an indwelling catheter over 12 h (at 0, 1, 1.5, 2, 3, 4, 6, 8, and 12 h) initiated at the same time of day, 1 day prior to the start of dosing, to obtain time-dependent baseline control data, and then at the exact same times immediately after the last dose was administered. Samples were frozen and then stored at −80 °C.
as §4

[8] = CD-1, mouse, in vivo, po, 65 mg/kg, Cmax, Table 2, mouse CSF, oral Posiphen
[9] = both, CD-1, mouse, in vivo, 65 mg/kg

SMILES | TINAP activity [2] | Cmax [3, 8] [µg/mL] | Cmax ([3]; CD-1, mouse, po, 65 mg/kg) [µg/mL] | concentration at 0.25 h [4, 9] [µg/mL] | concentration at 0.5 h [4, 9] [µg/mL] | concentration at 1 h [4, 9] [µg/mL] | concentration at 1.25 h [4, 9] [µg/mL] | concentration at 1.5 h [4, 9] [µg/mL] | concentration at 2 h [4, 9] [µg/mL] | concentration at 4 h [4, 9] [µg/mL] | concentration at 12 h [4, 9] [µg/mL] | AUC(0-t) [4, 9] [µg·h/mL] | Cmax [4, 9] [µg/mL] | Tmax [4, 9] [h] | Cmax [5] [µg/mL] | AUC(0-t) [5] [µg·h/mL] | Acetylcholinesterase inhibitory (AChEI) activity [6] | Kp [7] | AUC(0-t) [7] [µg·h/mL] | Cmax [7] [µg/mL] | other results
CN1c2ccc(OC(=O)Nc3ccccc3)cc2[C@@]2(C)CCNC12 (stereo partly shown) [N1, N1-norposiphen] | has both TINAP and AChEI activities | 0.0545 | 1.85 | 0.35 | 0.484 | 0.446 | 0.554 | 0.525 | 0.419 | 0.0836 | 0 | 1.4 | 0.554 | 1.25 | 0.0249 | 0.213 | has both TINAP and AChEI activities | 0.1 | 0.0267 | 0.00256 | Primary compound in plasma [1]: primary compound; Cmax ([3]; Table 2, mouse CSF, oral Posiphen): 0.0544 µg/mL; concentration at 8 h [4, 9]: 0.00364 µg/mL; Plasma level relative to N8 ([4]; mouse plasma): a fourth; Plasma level relative to Posiphen ([4]; mouse plasma): half
CN1CC[C@]2(C)c3cc(OC(=O)Nc4ccccc4)ccc3NC12 (stereo partly shown) [N8, N8-norposiphen] | have TINAP | 0.309 | 7.29 | 0.882 | 1.31 | 1.56 | 1.79 | 1.93 | 1.83 | 0.478 | 0 | 5.33 | 1.93 | 1.5 | 0.0304 | 0.26 | no acetylcholinesterase inhibitory (AChEI) activity | 0.17 | 0.0549 | 0.00508 | Plasma level relative to N1 ([4]; mouse plasma): 3.8 times; half-life [7]: > 12 h
C[C@]12CCNC1Nc1ccc(OC(=O)Nc3ccccc3)cc12 (stereo partly shown) [N1, N8, N1,N8-norposiphen] |  |  |  |  |  |  |  |  |  |  |  |  |  |  | 0.00366 | 0.0369 |  |  |  |  | 
